Data from patent publication US20230233488A1, “NOVEL USE OF A MODULATOR OF GLUCOSYLCERAMIDE DEGRADATION FOR VIRAL INFECTIONS” (SPEDDING RESEARCH SOLUTIONS, SAS, priority 2020, published 2023).
pIC50: −log10 of the molar value.

Assays:
SARS-CoV-2 = assay: Antiviral activity against SARS-CoV-2 in A549-ACE2 cells (supernatant viral load by RT-qPCR); details: for antiviral effect on SARS-CoV-2 replication / viral load: 10^−8 to 5.10^−5 M, 48 h, hydrochloride
A549-ACE2 cells = assay: Cytotoxicity in A549-ACE2 cells (AlamarBlue); details: 48 h incubation, 10^−8 to 5.10^−5 M
[1] = system: dengue virus serotype 2—strain 16681 (DENV2); assay: DENV2 infection of Huh7 cells, infectious virus release in supernatants (plaque assay on BHK cells); assay type: cell-based
Experimental: • 2.1 Material and methods Huh7, human hepatoma cells were used for all primary experiments. For all siRNA experiments, cells were seeded in 24-well plates at a concentration of 2×10^5 cells/well in DMEM and 10% FBS. […] During siRNA and drug treatment the media was removed and replaced with DMEM and 2% FBS and a corresponding concentration of siRNA or ambroxol. During viral infection, all media is removed and set aside, and a viral inoculum is added to the cells. The cells and viral inoculum are incubated for 1 hr at room temperature on a rocker. The virus is then aspirated from cells, cells are washed with 1Xphosphate buffer saline (PBS), the media is re-added to the cells, and cells are incubated at 37° C. and 5% CO2 for 24 h. […] Plaque assay analysis of infectious virus release from supernatants was conducted on baby hamster kidney cells (BHK cells). BHK cells are maintained in MEM with 10% FBS. For plaque assays, BHKs are seeded in 6 well plates at a density of […] cells/well. The following day, dilutions of viral supernatants collected from samples are applied to BHK cells, followed by a 1 hr incubation at room temperature, and then cells are overlaid with MEM containing 5% FBS and 2% agarose. Plaques are counted at 6 days post infection. For qRT-PCR analysis, cells are collected post infection in TRIzol reagent (Invitrogen), and RNA is extracted per manufacturer's protocol. A one-step qRT-PCR kit from Agilent (Brilliant III Ultra Fast SYBR Green qRT-PCR Kit) is used to assess viral genome copies. A standard curve of viral RNA is generated using a viral RNA from a cDNA subclone of DENV2 as described in Gullberg RC, et al. 2018. Copies of viral RNA are normalized to the ribosomal protein lateral stalk protein subunit PO (RPLPO) gene using the delta delta Cq method also described in Gullberg RC et al. 2018 (cited above).
Huh7 cells were treated with siRNA targeting glucosylceramidase beta 1 (GBA1) and infected with dengue virus serotype 2—strain 16681 (DENV2) with a multiplicity of infection or MOI=0.3) according to known techniques (Gullberg RC et al. 2018 cited above). After 24 hours post infection (hpi), supernatants were collected and analyzed via plaque assay on baby hamster kidney cells (BHK cells) for infectious virus release.
Huh7 cells were pre-treated with Ambroxol hydrochloride at 0.391, 0.781, 1.56, 3.125, 6.25, 12.5, 25, 50, 100, and 200 μM for 24 h, followed by DENV2 infection with MOI=0.1; or MOI=5). 24 hours post infection, supernatants were collected and analyzed via plaque assay on BHK cells.
Huh7 cells were treated with siRNAs targeting GBA1 and glucosylceramidase beta 2 (GBA2) enzymes followed by DENV2 infection with MOI=0.1; or MOI=5). 24 hpi, supernatants were collected and analyzed via plaque assay on BHK cells while RNA was extracted from cells and analyzed via qRT-PCR for DENV2 genome replication. Results

Huh7 cells = assay: Cytotoxicity in Huh7 cells (AlamarBlue); assay type: cell-based, human; details: 0.391 to 200 μM

For `Cl.Nc1c(Br)cc(Br)cc1CN[C@H]1CC[C@H](O)CC1` [Ambroxol, trans-4-(2-Amino-3,5-dibromobenzylamino) cyclohexanol hydrochloride], the “antiviral effect on SARS-CoV-2 replication / viral load” value (SARS-CoV-2) was “significant concentration-dependent antiviral effect”, the “antiviral effect on SARS-CoV-2 replication / viral load” value (SARS-CoV-2; listed as ambroxol) was “concentration-dependent effect reducing SARS-CoV-2 viral load” and the “maximal antiviral effect compared with remdesivir” value (SARS-CoV-2; dose-response of FIG. 1C) was “equivalent to that of remdesivir”. The pIC50 (SARS-CoV-2; read-out: 50% effective concentration (IC50), SARS-CoV-2 supernatant viral load, MOI 0.1, 48 h post infection, hydrochloride) was 4.66, the “cell viability (cytotoxicity)” value (A549-ACE2 cells) was “no toxic effects on cell viability” and the “potency against Dengue virus relative to SARS-CoV-2” value ([1]; Dengue versus SARS-CoV-2) was 10 fold. The pIC50 ([1]; Dengue virus, DENV2, MOI 0.1, read-out: IC50 against Dengue virus) was 6.07, the “concentration above which no detectable virus was released from cells” value ([1]; MOI=0.1, Huh7 cells, 24 h post infection) was “above 6.25 μM” and the “DENV2 release from Huh7 cells, low MOI” value ([1]; MOI=0.1, all concentrations tested (0.391 to 200 μM), 24 h pre-treatment, 24 h post infection) was “statistically significant reduction of DENV2 release”. For the same molecule, the “concentration giving a statistically significant reduction of DENV2 release” value ([1]; MOI=5, Huh7 cells, 24 h post infection) was ≥ 12.5 µM, the “DENV2 release from Huh7 cells, high MOI” value ([1]; MOI=5, all concentrations tested (0.391 to 200 μM), 24 h post infection) was “reduced DENV2 release” and the “cytopathic effect on cells” value (Huh7 cells) was “only the highest concentrations (100 μM and 200 μM) having any cytopathic effect”.
